Test results reported in PubChem BioAssay AID179 (DTP/NCI, 2004).
Several values for one entry are separate records, joined by “and”; a condition that tells them apart may be missing. Equal entries are not always repeated. Activity calls are given as the source filed them.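 How the source made its calls: active means compounds giving half or more protection of infected cells from virus-caused growth loss, again on retest; inactive means the rest.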

Tested on: CEM cells HIV-1 protection, formazan growth assay
Experiment: NCI AIDS Antiviral Assay
Conditions: for IC50: measured here: growth of uninfected CEM cells
Procedure, shortened: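 Protection of CEM cells against HIV-1 measured as cell growth via soluble formazan read-out, with five concentrations tested on both infected and uninfected cells; failure to protect may reflect toxicity.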

Compound | EC50 | IC50 | outcome
O=c1c(O)c(-c2ccccc2)oc2c(CP(=O)(O)O)cccc12 | > 200 µM | 162 µM | –
CCC1CN2CCc3c([nH]c4ccccc34)C2C[C@@H]1CC(=O)N(C)C (some centres undefined) | > 148 µM | > 148 µM | –
CC(=O)CCN1CC2CN=NC2(C#N)C1 (centres undefined) | > 200 µM | 46.8 µM | –
CC1CNC(c2ccc(NC(=O)Nc3cc(C(=O)Nc4ccc(C5=NC(C)CN5)cc4)ccc3C(=O)Nc3ccc(C4=NC(C)CN4)cc3)cc2)=N1 (centres undefined) | > 100 µM | > 100 µM | –
CCOC(=O)c1c(SCc2cc(=O)[nH]c(=O)[nH]2)n(-c2ccccc2)c(=S)n(-c2ccccc2)c1=O | 191 µM | > 200 µM | –
CCOc1ccc(N=Cc2cc(OC)c(OC)c(OC)c2)cc1 | > 60.3 µM | > 60.3 µM | –
COC(=O)c1cc(C(=O)c2cc(C(=O)OC)c(OC)c(Br)c2C)c(C)c(Br)c1OC | > 200 µM | > 200 µM | –
COC(=O)C(=O)c1c2ccccc2n2ccc3c4ccccc4[nH]c3c12 | > 200 µM | 83.2 µM | –
CCCOC(=O)c1cc(OC(C)=O)c2c(OC)ccc(OC)c2c1 | > 40.7 µM | > 40.7 µM | –
COc1nc(NC2OC(COC(C)=O)C(OC(C)=O)C(OC(C)=O)C2OC(C)=O)c(N=CC=Nc2c(NC3OC(COC(C)=O)C(OC(C)=O)C(OC(C)=O)C3OC(C)=O)nc(OC)n(C)c2=O)c(=O)n1C (centres undefined) | – | – | inactive
NC(=O)C1C2CC3C(NC(=O)C31)C2O (centres undefined) | > 200 µM | > 200 µM | –
CCCCCCCCCCCCCCCC(=O)Nc1nc(=O)n(C2CCC(COP(=O)(O)OCC3OC(n4cc(C)c(=O)[nH]c4=O)CC3N=[N+]=[N-])O2)cc1C (centres undefined) | 0.363 µM | 115 µM | –
Nc1nc(Cl)cc(NCC2(O)CC(CO)C2)n1 (centres undefined) | > 200 µM | > 200 µM | –
Cc1ccc(NCCN(C)C)c2c(=O)c3cc(O)ccc3oc12 | > 155 µM | 1.02 µM | –
CN(C)CCNC(=O)Cn1cnc2cccc([N+](=O)[O-])c2c1=O | > 200 µM | > 200 µM | –
CC(=O)/C(=C/n1ccc(=O)[nH]c1=S)C(=O)Nc1ccc(Cl)cc1 | > 200 µM | 155 µM | –
COc1cc2cc3c(c(-c4ccc5c(c4)OCO5)c2c(OC)c1OC)COC3=O | > 34.7 µM | 17.8 µM | –
COc1cc2c(cc1O)CC13CCC(=O)N1CCc1cc(OC)c(O)c-2c13 (centres undefined) | – | – | inactive
O=C1CCC2(c3ccc(Cl)cc3)Nc3cc([N+](=O)[O-])ccc3N12 (centres undefined) | > 21.9 µM | > 21.9 µM | –
COc1ccc(C(c2ccccc2C(=O)O)c2ccc(OC)c3ccccc23)c2ccccc12 | > 41.7 µM | 10.7 µM | –
CCCNC(=O)N(CC(C)C)S(=O)(=O)c1ccc(Cl)cc1 | – | – | inactive
S=c1nc(C(c2ccccc2)c2ccccc2)[nH][nH]1 | > 135 µM | > 135 µM | –

Compound | EC50 | IC50 | outcome
C=C1C(=O)O[C@@H]2C[C@@H](C)[C@@H]3C=CC(=O)[C@@]3(C)[C@@H](OC(=O)CCCC(=O)O[C@H]3[C@@H]4C(=C)C(=O)O[C@@H]4C[C@@H](C)[C@@H]4C=CC(=O)[C@]43C)[C@H]12 | > 5.75 µM | 0.407 µM | –
CCOC(=O)C(=O)Nc1cccc(C)c1C | > 813 µM | > 813 µM | –
COc1ccc(OC)c(NC(=O)C(=O)C(C(=O)c2ccccc2F)C2OC(=O)c3ccccc32)c1 (centres undefined) | > 275 µM | 13.2 µM | –
CC(C)(C)NNc1c([N+](=O)[O-])cnn(-c2ccccc2)c1=O | > 49 µM | 0.251 µM | –
CC(=O)OC1CC2Oc3ccc(C)cc3C(C)(O2)C1=O (centres undefined) | – | – | inactive
N#C/C(=C\N1CC(=O)NC1=S)C(N)=O | > 200 µM | > 200 µM | –
CC(=O)OCC1OC(OC2C(CSC3OC(COC(C)=O)C(OC(C)=O)C(OC(C)=O)C3OC(C)=O)OC(OC(C)=O)C(OC(C)=O)C2OC(C)=O)C(OC(C)=O)C(OC(C)=O)C1OC(C)=O (centres undefined) | > 36.3 µM | > 36.3 µM | –
c1ccc([P+](Cc2ccc(C[P+](c3ccccc3)(c3ccccc3)c3ccccc3)cc2)(c2ccccc2)c2ccccc2)cc1 | 17.4 µM | 38 µM | –
C[C@@H](NC(=O)c1ccccc1SC(=O)OCCCCCl)C(N)=O | 2.4 µM | 195 µM | –
CC(=O)OCc1nnn2c1CCC2 | – | – | inactive
Cc1cc2c(C)nn(Cc3ccccc3)c2c(C(=O)O)c1C | > 123 µM | > 123 µM | –
c1ccc(Nc2cc(Nc3ccccc3)cc(Nc3ccccc3)c2)cc1 | > 200 µM | 26.3 µM | –
Cc1ccc(S(=O)(=O)N/N=C/C=N/NS(=O)(=O)c2ccc(C)cc2)cc1 | – | – | inactive
COC(=O)c1ccc2c(c1)CC1(C2)Cc2cc3c(cc2C1)CCC3 | > 200 µM | > 200 µM | –
Cc1ccc(S/C=C/C(=O)Nc2ccccc2)cc1 | > 37.2 µM | > 37.2 µM and 25.1 µM | –
C[C@H]1Oc2c3c(c4ccc(=O)oc4c2C(=O)[C@@H]1C)OC(C)(C)C=C3 | > 200 µM | > 200 µM | –
CCc1nnc2c3cc4ccccc4n3cnn12 | > 151 µM | > 151 µM | –
O=C1NC2(CCCC2)C(=O)C12CCCC2 | – | – | inactive
CCCC#CC(O)(C(=O)OC1CCN(C)CC1)C1CCCCC1 (centres undefined) | > 200 µM | > 200 µM | –
Cc1sc(C)c2c1C(=O)CC2N (centres undefined) | > 200 µM | 9.77 µM | –
CC(=O)OCc1ccc2c(c1)C(O)NC(=O)O2 (centres undefined) | > 200 µM | 105 µM | –
CCCCCC[P+](c1ccccc1)(c1ccccc1)c1ccccc1 | > 200 µM | 0.741 µM | –

Compound | EC50 | IC50 | outcome
COc1cc(C)c2c(=O)c3c(oc2c1)C(=O)c1c(OC)c(OC)cc(OC)c1C3=O | – | – | inactive
CC(O)C[P+](c1ccccc1)(c1ccccc1)c1ccccc1 (centres undefined) | > 200 µM | 15.8 µM | –
O=C(O)c1ccc(C(=O)O)c(C(=O)c2cc(C(=O)O)ccc2C(=O)O)c1 | > 162 µM | 61.7 µM | –
Brc1c2nc3ccccc3nc2n2ccc3ccccc3c12 | > 28.8 µM | > 28.8 µM | –
O=C1NC2(C=Cc3c(ccc4ccccc34)O2)Oc2ccccc21 (centres undefined) | > 11.5 µM | > 11.5 µM | –
COC(OC)[C@@H]1OC[C@H](n2ccc(=O)[nH]c2=O)[C@H]1O | > 200 µM | > 200 µM | –
O=c1oc2ccccc2cc1P(=O)(O)O | > 200 µM | 8.91 µM | –
N#CC1=CNc2ccccc2N=C1N | > 200 µM | > 200 µM | –
CC(C)(C)OC(=O)N/N=C(/N)c1ccccc1 | > 200 µM | > 200 µM | –
CN(C)Cc1cc(C(=O)/C=C/c2ccc(Br)cc2)cc(CN(C)C)c1O | > 200 µM | 4.47 µM | –
Ic1cc2c(cc1C1SCCCS1)OCO2 | > 251 µM | > 251 µM | –
CCOC(=O)COC(=O)c1cc(C(=CCC[C@H]2CC[C@@]3(C)[C@@H](CC[C@@H]4[C@@H]3CC[C@]3(C)[C@@H](C(C)CCCC(C)C)CC[C@@H]43)C2)c2cc(Cl)c(OCC(=O)OCC)c(C(=O)OCC(=O)OCC)c2)cc(Cl)c1OCC(=O)OCC (some centres undefined) | > 200 µM | > 200 µM | –
COC12C=CC(CC1)C(C)(C)C2OS(C)(=O)=O (centres undefined) | – | – | inactive
O=c1[nH]c2cc([N+](=O)[O-])ccc2nc1/C(=N/Nc1ccccc1)C(O)c1ccccc1Cl (centres undefined) | > 363 µM | 355 µM | –
O=C1CSC(c2cccc(Cl)c2)N1N1C(=O)CSC1c1cccc(Cl)c1 (centres undefined) | > 200 µM | 66.1 µM | –
COc1cc2oc(-c3ccc(O)cc3)cc(=O)c2c(OC)c1OC | 97.7 µM | > 200 µM | –
Cc1ccc(/C=c2\cc3oc(=O)c4cccc(c4-3)c2=O)cc1 | > 200 µM | 3.8 µM | –
Clc1ccc(-c2c3nc(c(-c4ccc(Cl)cc4)c4ccc([nH]4)c(-c4ccc(Cl)cc4)c4nc(c(-c5ccc(Cl)cc5)c5ccc2[nH]5)C=C4)C=C3)cc1 | > 200 µM | > 200 µM | –
COc1ccccc1N1C(Cl)C(=O)C1c1c[nH]c2ccccc12 (centres undefined) | > 151 µM | 129 µM | –
O=C1N2CCN=C2c2ccccc2C1(O)c1ccccc1 (centres undefined) | > 200 µM | > 200 µM | –
COc1ccc(/C=C/C(C(=O)O)C(=O)O)cc1 | > 398 µM | 56.2 µM | –
CCN(CC)CC1CCCCN1CC(=O)N1c2ccccc2C(=O)Nc2cccnc21 (centres undefined) | > 200 µM | 32.4 µM | –

Compound | EC50 | IC50 | outcome
CCCCNC(=S)/N=C/c1c(O)c2ccccc2oc1=O | > 200 µM | 182 µM | –
NC(=O)c1ccc(NC(=O)c2ccccc2SC(=O)CCCC[n+]2ccccc2)cc1 | 7.41 µM | 15.8 µM | –
O=C1CN(C2CCCCC2)CC(=O)N2C(c3ccccc3)CCCN12 (centres undefined) | > 200 µM | > 200 µM | –
Nc1sc(=S)nc2[nH]ncc12 | > 200 µM | > 200 µM | –
CCOC(=O)N/N=C(\Cc1ccc([N+](=O)[O-])cc1)OCC | > 200 µM | > 200 µM | –
CC(C)Cn1c(N)c(N=O)c(=O)n(C)c1=O | > 200 µM | > 200 µM | –
O=C1OC(=O)C2C1C(c1ccc(Cl)cc1)N1C3C(=O)OC(=O)C3C(c3ccc(Cl)cc3)N21 (centres undefined) | > 28.8 µM | > 28.8 µM | –
COc1cc(NC=O)c2c(c1)SC(c1ccccc1)C(=O)N2 (centres undefined) | > 200 µM | 56.2 µM | –
COc1ccc2c(c1)CC1c3[nH]c4ccccc4c3CCN1C2 (centres undefined) | 56.2 µM and > 102 µM | 102 µM and 46.8 µM | –
Nc1cn(C2OC(CC(c3ccccc3)(c3ccccc3)c3ccccc3)C(O)C2O)c(=O)[nH]c1=O (centres undefined) | > 138 µM | 28.8 µM | –
CC1(C)OP(=O)(O)C=C1Sc1ccc([N+](=O)[O-])cc1[N+](=O)[O-] | > 200 µM | > 200 µM | –
COc1ccc(C2C(Cl)C(=O)N2NC(=O)c2ccc(N)cc2)cc1OC (centres undefined) | > 200 µM | 8.51 µM | –
CCOC(=O)/C(C1=NCCN1)=C(\O)c1ccccc1 | 468 µM | 912 µM | –
CC(C)(C)c1cc2ccc(C(N)=O)cc2c(=O)[nH]1 | > 537 µM | 302 µM | –
CC(C)CCCCCCCCCCCCC(=O)NCC(=O)NC1C(C)OC(Nc2ncnc3c2ncn3C)C(O)C1O (centres undefined) | – | – | inactive
O=C1C(c2ccccc2)CS(=O)(=O)CC1c1ccccc1 (centres undefined) | > 120 µM | 36.3 µM | –
CCn1cc(C(=O)O)c(=O)c2cc(F)c(-n3cccc3)cc21 | – | – | inactive
COc1cc(C2C(Cl)C(=O)N2NC(=O)Cc2ccccc2)ccc1O (centres undefined) | > 72.4 µM | > 72.4 µM | –
CSC(SC)=C(C(=O)O)P(=O)(O)O | > 200 µM | > 200 µM | –
